According to patent US6277847A, “Herbicidal isoindolinonyl-and 3,4-dihydroisoquinolonyl-substituted heterocycles” (FMC Corporation, priority 2000, dated 2001):

Experiments:
Format in all cases: in vivo
[1] = test system: morningglory (Ipomea lacunosa or Ipomea hederacea); test: pre-emergence herbicidal activity, morningglory; settings: Ipomoea, 1 kg/Ha, about fourteen days, read-out: pre-emergence herbicidal activity (% control) IPOSS
Procedure: (§1) This example sets forth the methods of herbicidal testing conducted on the specific compounds set forth below. Specifically, the compounds referenced below were tested for pre- and post-emergence herbicidal activity using a variety of crops and weeds. The test plants include, but are not limited to, soybean (Glycine max -- var. Winchester), field corn (Zea mays var. Pioneer 3732), wheat (Triticum aestivum var. Lew), morningglory (Ipomea lacunosa or Ipomea hederacea), velvetleaf (Abutilon theophrasti), green foxtail (Setaria viridis), Johnsongrass (Sorghum halepense), blackgrass (Aloepecurus myosuroides), common chickweed (Stellaria media), and common cocklebur (Xanthium strumarium L.).
(§2) In the post-emergence test, seeds of the plant species named above were planted in flats containing the appropriate soil mixture where they were maintained to allow the seeds to germinate. When the plants in these flats reached the proper stage of growth, flats for the pre-emergence tests were planted in a like manner. The flats containing the post-emergence and pre-emergence test plant species were then sprayed with an appropriately concentrated water/acetone solution of test compound. Once treated the flats were maintained, along with untreated controls, for about fourteen days. All treated plants were then examined for phytotoxicity, which was expressed as percent control where 0 is no effect and 100 is complete control. Effective rates of application for the compounds of the present invention range from 0.001 to 3 kg/ha, more likely from […] to 1 Kg/ha.
(§3) Herbicidal activity data at selected application rates are in Tables 4 and 5. The test compounds are identified by numbers correspond to those in Table 1.
(§4) Rate of application of test compound is 1 kg/Ha
(§5) SOY is soybean, WHT is wheat, CRN is corn, ABUTH is velvetleaf, IPOSS is
(§6) morningglory, STEME is chickweed, XANPE is cocklebur, ALOMY is blackgrass, […]

[2] = test system: morningglory (Ipomea lacunosa or Ipomea hederacea); test: post-emergence herbicidal activity, morningglory; settings: Ipomoea, 1 Kg/Ha, about fourteen days, read-out: post-emergence herbicidal activity (% control) IPOSS
Procedure: as §1, §2, §3, §5
(§7) morningglory, STEME is chickweed, XANPE is cocklebur, ALOMY is blackgrass,
(§8) Rate of application of test compound is 1 Kg/Ha. The definitions as shown under Table 4 apply to Table 5.

[3] = test system: soybean (Glycine max -- var. Winchester); test: pre-emergence herbicidal activity, soybean; settings: 1 kg/Ha, about fourteen days, read-out: pre-emergence herbicidal activity (% control) SOY
Procedure: as §1, §2, §3, §4, §5, §6

[4] = test system: blackgrass (Aloepecurus myosuroides); test: pre-emergence herbicidal activity, blackgrass; settings: Alopecurus myosuroides, 1 kg/Ha, about fourteen days, read-out: pre-emergence herbicidal activity (% control) ALOMY
Procedure: as §1, §2, §3, §4, §5, §6

[5] = test system: common chickweed (Stellaria media); test: pre-emergence herbicidal activity, chickweed; settings: 1 kg/Ha, about fourteen days, read-out: pre-emergence herbicidal activity (% control) STEME
Procedure: as §1, §2, §3, §4, §5, §6

[6] = test system: Johnsongrass (Sorghum halepense); test: post-emergence herbicidal activity, johnsongrass; settings: 1 Kg/Ha, about fourteen days, read-out: post-emergence herbicidal activity (% control) SORHA
Procedure: as §1, §2, §3, §5, §7, §8

[7] = test system: green foxtail (Setaria viridis); test: post-emergence herbicidal activity, green foxtail; settings: 1 Kg/Ha, about fourteen days, read-out: post-emergence herbicidal activity (% control) SETVI
Procedure: as §1, §2, §3, §5, §7, §8

[8] = test system: green foxtail (Setaria viridis); test: pre-emergence herbicidal activity, green foxtail; settings: 1 kg/Ha, about fourteen days, read-out: pre-emergence herbicidal activity (% control) SETVI
Procedure: as §1, §2, §3, §4, §5, §6

[9] = test system: soybean (Glycine max -- var. Winchester); test: post-emergence herbicidal activity, soybean; settings: 1 Kg/Ha, about fourteen days, read-out: post-emergence herbicidal activity (% control) SOY
Procedure: as §1, §2, §3, §5, §7, §8

[10] = test system: Johnsongrass (Sorghum halepense); test: pre-emergence herbicidal activity, johnsongrass; settings: 1 kg/Ha, about fourteen days, read-out: pre-emergence herbicidal activity (% control) SORHA
Procedure: as §1, §2, §3, §4, §5, §6

[11] = test system: wheat (Triticum aestivum var. Lew); test: post-emergence herbicidal activity, wheat; settings: 1 Kg/Ha, about fourteen days, read-out: post-emergence herbicidal activity (% control) WHT
Procedure: as §1, §2, §3, §5, §7, §8

[12] = test system: field corn (Zea mays var. Pioneer 3732); test: pre-emergence herbicidal activity, corn; settings: 1 kg/Ha, about fourteen days, read-out: pre-emergence herbicidal activity (% control) CRN
Procedure: as §1, §2, §3, §4, §5, §6

[13] = test system: common cocklebur (Xanthium strumarium L.); test: post-emergence herbicidal activity, cocklebur; settings: 1 Kg/Ha, about fourteen days, read-out: post-emergence herbicidal activity (% control) XANPE
Procedure: as §1, §2, §3, §5, §7, §8

[14] = test system: common cocklebur (Xanthium strumarium L.); test: pre-emergence herbicidal activity, cocklebur; settings: 1 kg/Ha, about fourteen days, read-out: pre-emergence herbicidal activity (% control) XANPE
Procedure: as §1, §2, §3, §4, §5, §6

[15] = test system: velvetleaf (Abutilon theophrasti); test: post-emergence herbicidal activity, velvetleaf; settings: 1 Kg/Ha, about fourteen days, read-out: post-emergence herbicidal activity (% control) ABUTH
Procedure: as §1, §2, §3, §5, §7, §8

[16] = test system: field corn (Zea mays var. Pioneer 3732); test: post-emergence herbicidal activity, corn; settings: 1 Kg/Ha, about fourteen days, read-out: post-emergence herbicidal activity (% control) CRN
Procedure: as §1, §2, §3, §5, §7, §8

[17] = test system: velvetleaf (Abutilon theophrasti); test: pre-emergence herbicidal activity, velvetleaf; settings: 1 kg/Ha, about fourteen days, read-out: pre-emergence herbicidal activity (% control) ABUTH
Procedure: as §1, §2, §3, §4, §5, §6

[18] = test system: wheat (Triticum aestivum var. Lew); test: pre-emergence herbicidal activity, wheat; settings: 1 kg/Ha, about fourteen days, read-out: pre-emergence herbicidal activity (% control) WHT
Procedure: as §1, §2, §3, §4, §5, §6

[19] = test system: common chickweed (Stellaria media); test: post-emergence herbicidal activity, chickweed; settings: 1 Kg/Ha, about fourteen days, read-out: post-emergence herbicidal activity (% control) STEME
Procedure: as §1, §2, §3, §5, §7, §8

SMILES	activity at 1000 g/ha [1]	activity at 1000 g/ha [2]	activity at 1000 g/ha [3]	activity at 1000 g/ha [4]	activity at 1000 g/ha [5]	activity at 1000 g/ha [6]	activity at 1000 g/ha [7]	activity at 1000 g/ha [8]	activity at 1000 g/ha [9]	activity at 1000 g/ha [10]	activity at 1000 g/ha [11]	activity at 1000 g/ha [12]	activity at 1000 g/ha [13]	activity at 1000 g/ha [14]	activity at 1000 g/ha [15]	activity at 1000 g/ha [16]	activity at 1000 g/ha [17]	activity at 1000 g/ha [18]	activity at 1000 g/ha [19]
Cn1c(C(F)(F)F)cc(=O)n(-c2c(Cl)cc(Cl)c3c2CNC3=O)c1=O [Compound 15]	100%	100%	100%	100%	60%	40%	60%	100%	70%	100%	50%	95%	60%	100%	100%	60%	100%	95%	
CCOC(=O)CN1Cc2c(-n3c(=O)cc(C(F)(F)F)n(C)c3=O)ccc(Cl)c2C1=O [Compound 7]	80%	40%	70%	40%	60%	40%	60%	70%	60%	55%	20%	70%	60%	50%	80%	40%	100%	30%	
COC(=O)CCN1Cc2c(-n3c(=O)cc(C(F)(F)F)n(C)c3=O)ccc(Cl)c2C1=O [Compound 26]	80%	80%	100%	80%	100%	80%	100%	80%	100%		70%	80%	100%	100%	100%	95%	100%	50%	100%
C=CCON1Cc2c(-n3c(=O)cc(C(F)(F)F)n(C)c3=O)ccc(Cl)c2C1=O [Compound 17]	100%	90%	100%		100%	100%	100%	100%	100%	100%	100%	100%	100%	100%	100%	90%	100%	100%	
Cn1c(C(F)(F)F)cc(=O)n(-c2ccc(Cl)c3c2CN(O)C3=O)c1=O [Compound 18]	100%	100%	95%			65%	70%	100%	80%	100%	50%	100%	95%	100%	100%	70%	100%	60%	
